The numbers were not newly measured in patent US6043217A, “Amide derivative of amythiamicin” (Zaidan Hojin Biseibutsu Kagaku Kenyu Kai, priority 1996, dated 2000), which cites them from elsewhere.

For this data set the following is noted: background statement on known amythiamicins; cited from earlier work.

Regarding `CNC(=O)CC1NC(=O)c2csc(n2)-c2ccc(-c3nc(C4=NC(C(=O)N5CCCC5C(N)=O)CO4)cs3)nc2-c2csc(n2)-c2csc(n2)C(C(C)C)NC(=O)CNC(=O)c2csc(n2)C(C(C)C)NC(=O)c2nc1sc2C` (centres unmarked) [Amythiamicin A], the solubility in water result was “hardly soluble in water”.

Turning to `CNC(=O)CC1NC(=O)c2csc(n2)-c2ccc(-c3nc(C(=O)OCC4NC(=O)C5CCCN5C4=O)cs3)nc2-c2csc(n2)-c2csc(n2)C(C(C)C)NC(=O)CNC(=O)c2csc(n2)C(C(C)C)NC(=O)c2nc1sc2C` (centres unmarked) [Amythiamicin C, amythiamicin C], the solubility in water entry is reported as “hardly soluble in water”.
